Where “and” joins values, the source holds several entries; their conditions need not be identical. Equal values may be shown once.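 Five compound concentrations were applied to cells in 96-well plates for 48 hours; endpoints were derived by simple linear interpolation of the resulting dose-response curve. GI50 marks 50% less growth. At the TGI there is no net growth.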
Experiments:
Assay in all cases: growth of human tumour cells (NCI), 48 h
[1] = system: SF-268 CNS
[2] = system: SNB-75 CNS
[3] = system: MDA-MB-435
[4] = system: NCI/ADR-RES ovarian
[5] = system: M14 melanoma
[6] = system: PC-3 prostate
[7] = system: SW-620 colon
[8] = system: SF-295 CNS

SMILES	GI50 [1]	TGI [1]	GI50 [2]	TGI [2]	GI50 [3]	TGI [3]	GI50 [4]	TGI [4]	GI50 [5]	TGI [5]	GI50 [6]	TGI [6]	GI50 [7]	TGI [7]	GI50 [8]	TGI [8]
C=C(C)[C@@H]1CC[C@]2(C(=O)NCCNCCNCCN)CC[C@]3(C)[C@H](CC[C@@H]4[C@@]5(C)CCC(=O)C(C)(C)[C@@H]5CC[C@]43C)[C@@H]12	7.53 µM	15.9 µM	6.25 µM	14.1 µM	8.7 µM	17.5 µM	8.41 µM	16.6 µM	8.38 µM	19 µM	6.26 µM	13.1 µM	7.91 µM	16.6 µM	9.42 µM	18.3 µM
Cc1ccc(Oc2nc3ccccc3cc2-c2nnc(Cn3c(COc4ccccc4)nc4ccccc43)o2)cc1	3.41 µM	15.9 µM	2.16 µM	9.74 µM	3.06 µM	11.9 µM	2.84 µM	10.9 µM	2.33 µM	7.4 µM	2.71 µM	15.4 µM	1.08 µM	4.79 µM	3.48 µM	14.1 µM
C[C@@H]1COC(Nc2ccc3ncnc(Nc4ccc(OCc5nccs5)c(Cl)c4)c3c2)=N1	6.27 µM and 5.59 µM	> 10 µM and 27.7 µM	8.88 µM and 6.83 µM	> 10 µM and 21.4 µM	6.2 µM and 6.24 µM	> 10 µM and 23.1 µM	2.6 µM and 2.64 µM	> 10 µM and 12 µM	3.16 µM and 4.12 µM	> 10 µM and 16.9 µM	3.37 µM and 2.98 µM	> 10 µM and 13.2 µM	> 10 µM and 14.6 µM	> 10 µM and 59.7 µM	4.9 µM and 4.54 µM	> 10 µM and 18.6 µM
Cc1cc2nc3c4cccc(O)c4n(CCN(C)C)c3nc2cc1C	4.23 µM	27.6 µM	1.18 µM	11.1 µM	1.65 µM	3.12 µM	1.97 µM	11.4 µM	1.63 µM	3.43 µM	1.88 µM	12.8 µM	1.53 µM	8.08 µM	3.58 µM	14 µM
COc1ccc(-c2cc(-c3nnc(SCC(=O)Nc4ccc(C(C)=O)cc4)o3)c3ccccc3n2)cc1	29.1 µM	> 100 µM	3.65 µM	22.6 µM	> 100 µM	> 100 µM	> 100 µM	> 100 µM	> 100 µM	> 100 µM	> 100 µM	> 100 µM	> 100 µM	> 100 µM	26.4 µM	> 100 µM
COc1cc2ncn(-c3cc(OCc4ccccc4S(C)(=O)=O)c(C#N)s3)c2cc1OC	> 22.7 µM	> 25 µM	8.19 µM	> 22.6 µM	> 25 µM	> 25 µM	> 25 µM	> 25 µM	> 25 µM	> 25 µM	> 25 µM	> 25 µM	> 25 µM	> 25 µM	> 25 µM	> 25 µM
COc1ccc2[nH]cc(-c3nc(-c4c[nH]c5ccncc45)cs3)c2c1	2.61 µM	6.97 µM	6.96 µM	20.1 µM	1.68 µM	3.13 µM	2.48 µM	6.84 µM	1.83 µM	3.62 µM	2.13 µM	5.23 µM	1.93 µM	3.84 µM	1.7 µM	3.19 µM
Cc1cc(C)c2c(N)c3cccc(C)c3nc2n1	2.15 µM	6.3 µM	1.83 µM	6.63 µM	2.26 µM	8.62 µM	1.54 µM	3.99 µM	1.58 µM	3.24 µM	2.44 µM	7.61 µM	1.94 µM	9.29 µM	1.44 µM	8.07 µM
COc1ccc2c(c1)[C@@]1(C)CCC3c4ccc(O)cc4CCC3C1C2 (some centres not stated)	16.3 µM	32.6 µM	16.6 µM	30.9 µM	15 µM	31 µM	14.4 µM	29.3 µM	18.9 µM	33.5 µM	20.1 µM	42 µM	16.9 µM	36.1 µM	17.3 µM	33.8 µM
CC[C@@]1(O)C(=O)OCc2c1cc1n(c2=O)Cc2cc3c(NC(=O)CN)cccc3nc2-1		> 39.8 µM		0.693 µM		17.3 µM		> 100 µM		2.8 µM		> 100 µM		> 100 µM		20.4 µM
Cc1ccc(/C(=C/C=C(C#N)C#N)Sc2ccccn2)cc1	3.37 µM	12.3 µM	5.18 µM	18.4 µM	4.79 µM	13.3 µM	4.63 µM	13.2 µM	2.69 µM	6.29 µM	4.65 µM	> 20.5 µM	0.474 µM	1.96 µM	8.72 µM	22.8 µM
O=[N+]([O-])/C=C/c1ccc([N+](=O)[O-])cc1	3.65 µM	12.9 µM	1.87 µM	4.02 µM	1.74 µM	3.99 µM	8.71 µM	73.8 µM	1.55 µM	3.22 µM	5.46 µM	24.8 µM	1.49 µM	3.21 µM	6.87 µM	24 µM
COc1ccc(/C=C\c2cc(OC)c(OC)c(OC)c2)cc1OCC(=O)Nc1nc2ccc(OC(F)(F)F)cc2s1	6.01 µM	> 100 µM	1.56 µM	7.68 µM	1.93 µM	5.14 µM	2.7 µM	8.62 µM	4.36 µM	> 100 µM	5.12 µM	> 100 µM	5.65 µM	> 100 µM	3.7 µM	> 100 µM
O=C(CCCn1ccnc1[N+](=O)[O-])NCCn1ccnc1[N+](=O)[O-]		> 100 µM		> 100 µM		> 100 µM		> 100 µM		> 100 µM		> 100 µM		> 100 µM		> 100 µM
O=[N+]([O-])c1cccc(-c2cc(-c3cc(Br)ccc3O)[nH]n2)c1	2.86 µM	12.7 µM	2.68 µM	14.5 µM	1.77 µM	4.58 µM	3.11 µM	8.94 µM	2.08 µM	5.03 µM	3.48 µM	7.7 µM	2.81 µM	12.3 µM		
